According to ChEMBL document CHEMBL4414672, “Synthesis of certain benzothieno[3,2-d]pyrimidine derivatives as a selective SIRT2 inhibitors” (Eur J Med Chem, 2020):

Columns and labels:
Type in all cases: functional
K562 = assay: Growth inhibition of human K562 cells at 10^-5 M incubated for 48 hrs by sulforhodamine B assay; conditions: K562, 48 h, read-out: GI
EKVX = assay: Growth inhibition of human EKVX cells at 10^-5 M incubated for 48 hrs by sulforhodamine B assay; conditions: read-out: GI
HOP-62 = assay: Growth inhibition of human HOP62 cells at 10^-5 M incubated for 48 hrs by sulforhodamine B assay; conditions: HOP-62, 48 h, read-out: GI
HOP-92 = assay: Growth inhibition of human HOP92 cells at 10^-5 M incubated for 48 hrs by sulforhodamine B assay; conditions: HOP-92, 48 h, read-out: GI
NCI-H226 = assay: Growth inhibition of human NCI-H226 cells at 10^-5 M incubated for 48 hrs by sulforhodamine B assay; conditions: NCI-H226, 48 h, read-out: GI
COLO 205 = assay: Growth inhibition of human COLO205 cells at 10^-5 M incubated for 48 hrs by sulforhodamine B assay; conditions: COLO 205, 48 h, read-out: GI
HCC 2998 = assay: Growth inhibition of human HCC2998 cells at 10^-5 M incubated for 48 hrs by sulforhodamine B assay; conditions: HCC 2998, 48 h, read-out: GI
HT-29 = assay: Growth inhibition of human HT-29 cells at 10^-5 M incubated for 48 hrs by sulforhodamine B assay; conditions: HT-29, 48 h, read-out: GI
KM12 = assay: Growth inhibition of human KM12 cells at 10^-5 M incubated for 48 hrs by sulforhodamine B assay; conditions: KM12, 48 h, read-out: GI
SF-539 = assay: Growth inhibition of human SF539 cells at 10^-5 M incubated for 48 hrs by sulforhodamine B assay; conditions: SF-539, 48 h, read-out: GI
U-251 = assay: Growth inhibition of human U251 cells at 10^-5 M incubated for 48 hrs by sulforhodamine B assay; conditions: U-251, 48 h, read-out: GI
MDA-MB-435 = assay: Growth inhibition of human MDA-MB-435 cells at 10^-5 M incubated for 48 hrs by sulforhodamine B assay; conditions: MDA-MB-435, 48 h, read-out: GI
SK-MEL-2 = assay: Growth inhibition of human SK-MEL-2 cells at 10^-5 M incubated for 48 hrs by sulforhodamine B assay; conditions: SK-MEL-2, 48 h, read-out: GI
UACC-257 = assay: Growth inhibition of human UACC257 cells at 10^-5 M incubated for 48 hrs by sulforhodamine B assay; conditions: UACC-257, 48 h, read-out: GI
OVCAR-4 = assay: Growth inhibition of human OVCAR4 cells at 10^-5 M incubated for 48 hrs by sulforhodamine B assay; conditions: OVCAR-4, 48 h, read-out: GI
CAKI-1 = assay: Growth inhibition of human Caki1 cells at 10^-5 M incubated for 48 hrs by sulforhodamine B assay; conditions: CAKI-1, 48 h, read-out: GI
UO-31 = assay: Growth inhibition of human UO31 cells at 10^-5 M incubated for 48 hrs by sulforhodamine B assay; conditions: UO-31, 48 h, read-out: GI
PC-3 = assay: Growth inhibition of human PC3 cells at 10^-5 M incubated for 48 hrs by sulforhodamine B assay; conditions: PC-3, 48 h, read-out: GI
BT-549 = assay: Growth inhibition of human BT549 cells at 10^-5 M incubated for 48 hrs by sulforhodamine B assay; conditions: BT-549, 48 h, read-out: GI
MDA-MB-468 = assay: Growth inhibition of human MDA-MB-468 cells at 10^-5 M incubated for 48 hrs by sulforhodamine B assay; conditions: MDA-MB-468, 48 h, read-out: GI

| SMILES | inhibition of growth at 10 µM (K562) [%] | inhibition of growth at 10 µM (EKVX) [%] | inhibition of growth at 10 µM (HOP-62) [%] | inhibition of growth at 10 µM (HOP-92) [%] | inhibition of growth at 10 µM (NCI-H226) [%] | inhibition of growth at 10 µM (COLO 205) [%] | inhibition of growth at 10 µM (HCC 2998) [%] | inhibition of growth at 10 µM (HT-29) [%] | inhibition of growth at 10 µM (KM12) [%] | inhibition of growth at 10 µM (SF-539) [%] | inhibition of growth at 10 µM (U-251) [%] | inhibition of growth at 10 µM (MDA-MB-435) [%] | inhibition of growth at 10 µM (SK-MEL-2) [%] | inhibition of growth at 10 µM (UACC-257) [%] | inhibition of growth at 10 µM (OVCAR-4) [%] | inhibition of growth at 10 µM (CAKI-1) [%] | inhibition of growth at 10 µM (UO-31) [%] | inhibition of growth at 10 µM (PC-3) [%] | inhibition of growth at 10 µM (BT-549) [%] | inhibition of growth at 10 µM (MDA-MB-468) [%] |
| --- | --- | --- | --- | --- | --- | --- | --- | --- | --- | --- | --- | --- | --- | --- | --- | --- | --- | --- | --- | --- |
| O=C1/C(=C\c2ccccc2O)Sc2ccc(Cl)cc21 | 4.83 | 13.3 | 5.99 | 3 | 4.98 | -5.97 | -25.6 | -12.2 | -0.47 | -6.81 | -8.52 | -5.13 | 1.25 | -1.33 | 1.63 | 15.9 | -16 | 1.43 | -20.1 | -4.1 |
| N=C1Nc2c(sc3ccc(Cl)cc23)C(c2ccccc2O)N1 (stereo not given) | -2.22 | 17.6 | 9.32 | 21.2 | 12.7 | -6.79 | -22.2 | -6.21 | -3.63 | -6.63 | -7.81 | 2 | 0.27 | -10.3 | 12.3 | -15.6 | 11.9 | -12.5 | 17.5 | 2.58 |
| Oc1ccccc1C1NC(=S)Nc2c1sc1ccc(Cl)cc21 (stereo not given) | 8.3 | 19.7 | 5.51 | 13.4 | 21.8 | -1.76 | -10.6 | -1.54 | 1.3 | -0.95 | -5.09 | -10.2 | 7.35 | -1.4 | 7.52 | 12.9 | -8.34 | 10.2 | -5 | 8.75 |
| O=C1Nc2c(sc3ccc(Cl)cc23)C(c2ccccc2O)N1 (stereo not given) | 14.7 | 21.9 | 13.9 | 21 | 18.7 | -9.33 | -15.3 | -3.51 | -2.4 | 3.22 | 4.41 | -3.03 | 2.38 | 9.85 | 9.71 | 18.5 | -18.6 | 15.2 | 4.41 | 0.19 |
| O=C1/C(=C\c2cccc(Br)c2)Sc2ccc(Cl)cc21 | -7.99 | -0.43 | 3.1 | -15.1 | 10.4 | -6.12 | -3.41 | -10.6 | -0.19 | -3.89 | -3.45 | -14 | -5.68 | -6.58 | -9.77 | 10.1 | -29.1 | -1.54 | -26.2 | -18.6 |
